The values below come from patent publication US20240238274A1, “INHIBITORS OF UBIQUITIN SPECIFIC PEPTIDASE 22 (USP22) AND USES THEREOF FOR TREATING DISEASE AND DISORDERS” (Northwestern University, priority 2021, published 2024).

This experiment relates to LLC1 lung carcinoma. In words: LLC1 tumor model in WT mice. The format is in vivo. As to the method:
FIG. 6: Usp22 inhibitor administration enhances antitumor immunity. A, Structure of compound CS30 (Usp22i-S02). B, FOXP3 MFI in WT and 22KO of Treg cells after treatment with 20 mg/kg of Usp22i-S02 in vivo (n=3). C, Representative flow cytometry plot of FOXP3+CD25+ MFI of CD4+ peripheral cells of mice treated with 20 mg/kg of Usp22i-S02 relative to control (n=5). D, Graphical representation of Foxp3 MFI upon Usp22i-S02 administration (n=5). E, Tumor growth curve of LLC1 cells subcutaneously injected in the flank of WT mice with or without the addition of 20 mg/kg/time of the Usp22 inhibitor starting at day 15, in 100 μL of oil (n=4). F-G, Representative flow cytometry plot and graphical representation of % infiltration of CD4+ and CD8+ T cells within the tumor (n=4). H, Representative histogram plot and graphical representation of itTreg Foxp3 MFI (n=4). I, MFI of itTreg suppressive markers (n=3-4). J, Percent Foxp3+IFNg+ itTreg cells in control and Usp22-S02 treated mice (n=3-4). B, D-E, G, H-I Two-way ANOVA with multiple comparisons between rows was performed to determine statistical significance. J, Unpaired two tailed T test was performed to determine significance. All data are presented as mean±stdev. NS, not significant. *P<0.05, **P<0.01, ***P<0.001, ****P<0.0001.
FIG. 16: Usp22i-S02 has little effect on naïve mice, yet enhances anti-tumor immunity in LLC1-challenged mice. A, Body weight of Usp22i-S02 treated mice verses DMSO treated controls over the course of treatment (n=4). A-F. Injections were twice a day for 3 consecutive days at 10 mg/kg (n=4). B, Percent of cell populations in naïve mice treated with Usp22i-S02 relative to DMSO control (n=3-4). C, Percent of KI-67+ cells in various compartments in naïve mice treated with Usp22i-S02 relative to DMSO control (n=3-4). D, Percent CD44^hiCD62L^10 in T cell populations gated on CD45+ cells in naïve mice treated with Usp22i-S02 relative to DMSO control (n=3). E, Percent Annexin+PI+ T cells gates on CD45+ cells in naïve mice treated with Usp22i-S02 relative to DMSO control (n=4). […]

Molecules are shown by their SMILES.

As to `N#Cc1c2c(c(Nc3ccccc3)n3c1nc1ccccc13)CCCC2` [Chemical S02, 11-anilino-7,8,9,10-tetrahydro-benzimidazo [1,2-b] isoquinoline-6-carbonitrile], the “intratumoral Foxp3+ Treg percentage” value (LLC1 tumors, not splenic) is listed as “significantly decreased”. In addition, the “Teff cell tumor infiltration” value (established LLC1 tumors) is “significant increase in Teff cell tumor infiltration”. Where the note is “established LLC1 tumors, 20 mg/kg/time vs untreated”, the tumor rejection result is recorded as “striking tumor rejection”.
